Data published in EP1178807B1, “USE OF ORG 33245 IN COMBINED INTERMITTENT HORMONE THERAPY AND CONTRACEPTION” (Akzo Nobel N.V., priority 1999, dated 2000).

How the values were obtained:
[1] = Anti-McPhail test for anti-progestagenic activity; type: in vivo; details: Minimum Active Dose (MAD)
Method: Anti-progestagenic activity is determined by using an anti-McPhail test as known to the person skilled in the art and described, int.al., in Kloosterboer et al., Human Reproduction (1994), Volume 9, Supplement 1, pages 47-52.

orosomucoid = assay: Binding to orosomucoid (as described in Philibert et al.); set-up: species or system human; details: for Binding affinity to orosomucoid (relative to RU 486): relative to RU 486 (100%)
Method: Of several anti-progestagens the binding to orosomucoid is determined as described in Philibert et al., Antihormones in Health and Disease (M.K. Agarwal, ed.), 1991, 19, 1-17.

## C=C1CCO[C@]12CC[C@H]1[C@@H]3CCC4=CC(=O)CCC4=C3[C@@H](c3ccc(C(C)=O)cc3)C[C@@]12C
[1]
  minimal effective dose: 8 mg/kg
orosomucoid
  Binding affinity to orosomucoid (relative to RU 486): 13,5%

## C=C1CCO[C@]12CC[C@H]1[C@@H]3CCC4=CC(=O)CCC4=C3[C@@H](c3ccc(SC)cc3)C[C@@]12C
[1]
  minimal effective dose: > 1 mg/kg
orosomucoid
  Binding affinity to orosomucoid (relative to RU 486): 82%

## C=C1CCO[C@]12CC[C@H]1[C@@H]3CCC4=CC(=O)CCC4=C3[C@@H](c3ccc(OC)cc3)C[C@@]12C
[1]
  minimal effective dose: 1 mg/kg
orosomucoid
  Binding affinity to orosomucoid (relative to RU 486): 64%

## C=C1CCO[C@]12CC[C@H]1[C@@H]3CCC4=CC(=O)CCC4=C3[C@@H](c3ccc(N(C)C)cc3)C[C@@]12C [Org 33245, (11β,17α)-17,23-epoxy-11-[(4-dimethylamino)phenyl]-19,24-dinorchola-4,9,20-trien-3-one]
[1]
  minimal effective dose: 0.5 mg/kg
orosomucoid
  Binding affinity to orosomucoid (relative to RU 486): 222%
orosomucoid; result in words, said to indicate a relatively long half life
  binding to human orosomucoid: strong binding
